Results on 5 compounds are retold here after patent publication US8383824B2, “Heterocyclic antiviral compounds” (Roche Palo Alto LLC, priority 2009, dated 2013).

The test system of data set [1] is HCV replicon cells (2209-23). Put plainly: HCV replicon assay (Renilla luciferase reporter). The note with it: Hepatitis C virus, 72 h; 2209-23 cells, three days incubation. The data set is classed as cell-based, HCV genotype 1b replicon in human hepatoma Huh7 cells. Background: Replicon systems follow genome replication, usually without infectious particles.
Data set [2] can be described thus: Determination of pharmacokinetic parameters in rats. The data set is classed as in vivo. The note with it: male, Wistar Han (Hanover-Wistar), Crl:WI(GLx/BRL/Han)IGS BR, rat, oral gavage, 10 mg/kg, plasma; for AUC(0-t): read-out: AUC0→24 (extrapolated). The protocol:
Intact male IGS Wistar Han Rats Crl:WI(GLx/BRL/Han)IGS BR (Hanover-Wistar) rats weighing 200-250 g were used. Groups of three rats were used for each dose level of an experimental compound. Animals were allowed normal access to chow and water throughout the experiment. The test substance was formulated as an aqueous suspension containing Captex355EP, Capmul MCM, EtOH, and propylene glycol (30:20:20:30) at a dose equivalent to 10 mg/kg of the I-6 and was administered orally by gavage. A blood sample (0.3 mL) was collected from the treated rats at, 0.25, 0.5, 1, 3, 5, and 8 h from a jugular cannula and at 24 h by cardiac puncture. Potassium oxalate/NaF were added to the samples which were stored on ice during sampling procedure. The samples were spun in a refrigerated centrifuge at […] as soon as possible and the plasma samples were stored in a −80° C. freezer until analysis. Aliquots of plasma (0.05 mL) were mixed with 0.1 mL of acetonitrile. Internal standard (0.05 mL in water) and 0.02 mL blank solvent were added. A set of calibration standards was prepared by mixing 0.05-mL aliquots of plasma from untreated rats with 0.1 mL acetonitrile, 0.02-mL aliquots of standard solution in methanol:water (1:1) and 0.05-mL aliquots of the internal standard in water. Each plasma sample and calibration standard was vortexed thoroughly and then centrifuged at 3000 rpm for 5 min to precipitate the protein. Supernatant (100 μL each) from centrifugation was transferred into a 96-well plate containing 200 μL of aqueous mobie phase for LC/MS/MS analysis.

The subject of the next data set is HCV. Conditions: monotherapy; cited from earlier work.

Each structure is given as a SMILES string.

In general, IC50 refers to the concentration that inhibits the measured activity by half. Lower therefore signals greater potency. As for `[2H]C([2H])([2H])C(c1cc(-c2ccc[nH]c2=O)cc(/C=C/c2ccc(NS(C)(=O)=O)cc2)c1OC)(C([2H])([2H])[2H])C([2H])([2H])[2H]` [Compound I-1, N-(4-{(E)-2-[3-[1,1-di(methyl-d3)ethyl-2,2,2-d3]-2-methoxy-5-(2-oxo-1,2-dihydro-pyridin-3-yl)-phenyl]-vinyl}-phenyl)-methanesulfonamide], inhibition in data set [1] was half-maximal at 6.1 nM (IC50). For orientation: AUC means the area under the concentration-time curve, a measure of exposure. High values mean more exposure, low ones less exposure. The term Cmax denotes the peak of the concentration-time curve. In the case of `[2H]C([2H])([2H])C(c1cc(-c2cc(Cl)c[nH]c2=O)cc(/C=C/c2ccc(NS(C)(=O)=O)cc2)c1OC)(C([2H])([2H])[2H])C([2H])([2H])[2H]` [Compound I-3, N-(4-{(E)-2-[3-[1,1-di(methyl-d3)ethyl-2,2,2-d3]-2-methoxy-5-(2-oxo-5-chloro-1,2-dihydro-pyridin-3-yl)-phenyl]-vinyl}-phenyl)-methanesulfonamide], in data set [2], the AUC amounted to 810 ng·h/mL, the peak level (Cmax) was 83.4 ng/mL and the AUC(0-t) is 1000 ng·h/mL. In data set [1], `[2H]C([2H])([2H])C(c1cc(-c2c[nH]c(=O)[nH]c2=O)cc(/C=C/c2ccc(NS(C)(=O)=O)cc2)c1OC)(C([2H])([2H])[2H])C([2H])([2H])[2H]` [Compound I-4, N-(4-{(E)-2-[3-[1,1-di(methyl-d3)ethyl-2,2,2-d3]-5-(2,4-dioxo-1,2,3,4-tetrahydro-pyrimidin-5-yl)-2-methoxy-phenyl]-vinyl}-phenyl)-methanesulfonamide] returned an IC50 of 3.9 nM. Regarding `COc1c(/C=C/c2ccc(NS(C)(=O)=O)cc2)cc(-c2cc(Cl)c[nH]c2=O)cc1C(C)(C)C` [I-3 (non-deuterated), reference compound], in data set [2], the AUC is 338 ng·h/mL, the concentration peaked (Cmax) at 55.8 ng/mL and the AUC(0-t) is 365 ng·h/mL. `NC(=O)c1ncn([C@@H]2O[C@H](CO)[C@@H](O)[C@H]2O)n1` [ribavirin, 1-((2R,3R,4S,5R)-3,4-Dihydroxy-5-hydroxymethyl-tetrahydro-furan-2-yl)-1H-[1,2,4]triazole-3-carboxylic acid amide]: in the data set on HCV, the “patients with serum amino transferase levels reduced to normal” value is 40%.
